Results taken from US7893288B2, “Poly-halogenated triazapentadiene compositions” (Board of Regents, The University of Texas System, priority 2007, dated 2011).
Converted amounts (≈) assume the structure as drawn. “And” between values parts separate entries of the source, which are not always exact repeats. Equal values may be shown once.

Experiments:
Format in all cases: cell-based
[1] = tested on: Staphylococcus aureus (ATCC 25923); experiment: Disk sensitivity test (modified Kirby-Bauer), S. aureus;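 further: Compound-loaded filter disks on LB agar plates seeded with a confluent bacterial lawn, compound dissolved in DMSO, plates kept overnight at 37 °C, then inhibition zone around disk measured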
Experimental: (§2) Filter disks were provided as sterile filter paper (about 6 mm in diameter) and spotted with 20 μL of a selected compound. Each compound was initially dissolved in dimethylsulfoxide (DMSO); any subsequent dilutions were also made in DMSO. Each filter was placed on an LB agar plate spread with 100 μL of a bacterial culture that had been grown overnight in suitable LB broth. Plates were incubated overnight at 37° C., after which, the extent of growth inhibition around each filter disk was measured. Bacterial strains included Staphylococcus aureus (ATCC 25923), Pseudomonas aeruginosa PAO1, Bacillus subtilis W168 and Escherichia coli HB101. […] The latter two strains are non-pathogenic Gram-positive and Gram-negative bacterial strains, respectively.

Bacillus subtilis W168 [2] = experiment: Disk sensitivity test (modified Kirby-Bauer), B. subtilis;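 further: Compound-loaded filter disks on LB agar plates seeded with a bacterial lawn, plates held overnight at 37 °C, then the clear zone around each disk measured, compounds in DMSO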
[3] = tested on: Pseudomonas aeruginosa PAO1; experiment: Disk sensitivity test (modified Kirby-Bauer), P. aeruginosa;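 further: Compound-loaded filter disks on LB agar lawns, DMSO as solvent, zone of inhibition around each disk read after overnight incubation at 37 °C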
Experimental: as §2

Escherichia coli HB101 [4] = experiment: Disk sensitivity test (modified Kirby-Bauer), E. coli;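 further: filter disk loaded with compound in DMSO laid on an LB agar bacterial lawn, kept overnight at 37 °C, then the inhibition zone around the disk is measured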
Experimental: as §2

[5] = tested on: Staphylococcus aureus (ATCC 25923); experiment: Minimum inhibitory concentration in LB broth, S. aureus; conditions: for Relative to AgNO3: efficacy per mole from MIC values
Bacillus subtilis W168 [6] = experiment: Minimum inhibitory concentration in LB broth, B. subtilis; conditions: for Relative to AgNO3: efficacy per mole from MIC values
[7] = tested on: Pseudomonas aeruginosa PAO1; experiment: Minimum inhibitory concentration in LB broth, P. aeruginosa; conditions: for Relative to AgNO3: efficacy per mole from MIC values
Escherichia coli HB101 [8] = experiment: Minimum inhibitory concentration in LB broth, E. coli; conditions: for Relative to AgNO3: efficacy per mole from MIC values;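 on all read-outs here: broth dilution MIC, test compounds first taken up in DMSO, then serially diluted in LB medium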
[9] = tested on: Gram positive and Gram negative bacteria; experiment: Antimicrobial activity, summary of TABLES 16-18
Experimental: (§1) The new class of fluorinated triazapentadiene compounds with and without metal complexation as described herein were analyzed for antibacterial activity against several bacterial strains (both Gram positive and Gram negative). Methods for antimicrobial analysis included a modified Kirby-Bauer method and a determination of their minimum inhibitory concentrations. In brief, the modified Kirby-Bauer method relied on placement of a filter disk impregnated with a desired compound on a solid growth medium. Bacteria were grown to a confluent lawn and the extent of growth inhibition was measured (e.g., as an extent/percentage of a clear zone on the disk and/or solid medium).
For MIC assessment, compounds were initially dissolved in DMSO and serial dilutions of soluble compounds were made in LB broth.

[10] = tested on: Gram-positive bacteria (e.g., S. aureus and B. subtilis); experiment: Growth inhibition of Gram-positive bacteria, summary of TABLES 6-19
Experimental: as §1
Filter disks were provided as sterile filter paper (about 6 mm in diameter) and spotted with 20 μL of a selected compound. Each compound was initially dissolved in dimethylsulfoxide (DMSO); any subsequent dilutions were also made in DMSO. Each filter was placed on an LB agar plate spread with 100 μL of a bacterial culture that had been grown overnight in suitable LB broth. Plates were incubated overnight at 37° C., after which, the extent of growth inhibition around each filter disk was measured. Bacterial strains included Staphylococcus aureus (ATCC 25923), Pseudomonas aeruginosa PAO1, Bacillus subtilis W168 and Escherichia coli HB101. […]

| SMILES | Diameter of the zone of growth inhibition ([1]; 5.7 × 10^0 mM) [mm] | Diameter of the zone of growth inhibition ([1]; 5.7 × 10^1 mM) [mm] | Diameter of the zone of growth inhibition ([1]; 5.7 × 10^−1 mM) | Diameter of the zone of growth inhibition ([1]; 5.7 × 10^−2 mM) | Diameter of the zone of growth inhibition ([1]; 5.7 × 10^−3 mM) | Diameter of the zone of growth inhibition (Bacillus subtilis W168 [2]; 5.7 × 10^0 mM) [mm] | Diameter of the zone of growth inhibition (Bacillus subtilis W168 [2]; 5.7 × 10^1 mM) [mm] | Diameter of the zone of growth inhibition (Bacillus subtilis W168 [2]; 5.7 × 10^−1 mM) | Diameter of the zone of growth inhibition (Bacillus subtilis W168 [2]; 5.7 × 10^−2 mM) | Diameter of the zone of growth inhibition (Bacillus subtilis W168 [2]; 5.7 × 10^−3 mM) | Diameter of the zone of growth inhibition ([3]; 5.7 × 10^0 mM) [mm] | Diameter of the zone of growth inhibition ([3]; 5.7 × 10^1 mM) [mm] | Diameter of the zone of growth inhibition ([3]; 5.7 × 10^−1 mM) [mm] | Diameter of the zone of growth inhibition ([3]; 5.7 × 10^−2 mM) [mm] | Diameter of the zone of growth inhibition ([3]; 5.7 × 10^−3 mM) [mm] | Diameter of the zone of growth inhibition (Escherichia coli HB101 [4]; 5.7 × 10^0 mM) [mm] | Diameter of the zone of growth inhibition (Escherichia coli HB101 [4]; 5.7 × 10^1 mM) [mm] | Diameter of the zone of growth inhibition (Escherichia coli HB101 [4]; 5.7 × 10^−1 mM) [mm] | Diameter of the zone of growth inhibition (Escherichia coli HB101 [4]; 5.7 × 10^−2 mM) [mm] | Diameter of the zone of growth inhibition (Escherichia coli HB101 [4]; 5.7 × 10^−3 mM) [mm] | also measured |
| --- | --- | --- | --- | --- | --- | --- | --- | --- | --- | --- | --- | --- | --- | --- | --- | --- | --- | --- | --- | --- | --- |
| Fc1c(F)c(F)c(N=C(N=C(Nc2c(F)c(F)c(F)c(F)c2F)C(F)(F)C(F)(F)C(F)(F)F)C(F)(F)C(F)(F)C(F)(F)F)c(F)c1F [[N{(C3F7)C(C6F5)N}2]H] | 37.5 | 75.0 | 40.0 mm | 19.0 mm | 9.0 mm | 39.0 | 71.0 | 47.0 mm | 22.0 mm | 10.0 mm | 8.0 | 9.0 | 8.0 | 8.0 | 7.0 | 9.0 | 9.5 | 9.0 | 8.5 | 7.0 | Diameter of the zone of growth inhibition ([1]; 5.7 × 10^−4 mM): 6.0 (NZ) mm; Diameter of the zone of growth inhibition ([1]; 5.7 × 10^−5 mM): 6.0 (NZ) mm; Diameter of the zone of growth inhibition ([1]; 5.7 × 10^−6 mM): 6.0 (NZ) mm; Diameter of the zone of growth inhibition ([1]; 5.7 × 10^−7 mM): 6.0 (NZ) mm; Diameter of the zone of growth inhibition (Bacillus subtilis W168 [2]; 5.7 × 10^−4 mM): 8.0 mm; Diameter of the zone of growth inhibition (Bacillus subtilis W168 [2]; 5.7 × 10^−5 mM): 6.0 (NZ) mm; Diameter of the zone of growth inhibition (Bacillus subtilis W168 [2]; 5.7 × 10^−6 mM): 6.0 (NZ) mm; Diameter of the zone of growth inhibition (Bacillus subtilis W168 [2]; 5.7 × 10^−7 mM): 6.0 (NZ) mm; MIC [5]: 1.57 μg/ml and 2.12 × 10^−3 mM; Relative to AgNO3 [5]: 34.71; MIC (Bacillus subtilis W168 [6]): 1.57 μg/ml and 2.12 × 10^−3 mM; Relative to AgNO3 (Bacillus subtilis W168 [6]): 69.34; MIC [7]: 2643.48 μg/ml and 3.58 mM; Relative to AgNO3 [7]: 5.14 × 10^−3; MIC (Escherichia coli HB101 [8]): 2643.48 μg/ml and 3.58 mM; Relative to AgNO3 (Escherichia coli HB101 [8]): 1.65 × 10^−2; antimicrobial activity (in words) [9]: Effective |
| Cc1cc(C)c(N=C(N=C(Nc2c(C)cc(C)cc2C)C(F)(F)C(F)(F)C(F)(F)F)C(F)(F)C(F)(F)C(F)(F)F)c(C)c1 [[N{(C3F7)C(Mes)N}2]H] | 7.5 | 9.5 | 6.0 (NZ) mm | 6.0 (NZ) mm | 6.0 (NZ) mm | 8.0 | 9.0 | 6.0 (NZ) mm | 6.0 (NZ) mm | 6.0 (NZ) mm | 8.5 | 9.0 | 7.5 | 7.5 | 7.0 | 8.0 | 10.0 | 7.5 | 7.0 | 7.0 | MIC [5]: 2252.38 μg/ml and 3.50 mM; Relative to AgNO3 [5]: 2.10 × 10^−2; MIC (Bacillus subtilis W168 [6]): 2.69 mM (≈ 1730 µg/mL); Relative to AgNO3 (Bacillus subtilis W168 [6]): 5.46 × 10^−2; MIC [7]: 1402.43 μg/ml and 2.18 mM; Relative to AgNO3 [7]: 8.44 × 10^−3; MIC (Escherichia coli HB101 [8]): 1126.88 μg/ml and 1.75 mM; Relative to AgNO3 (Escherichia coli HB101 [8]): 3.37 × 10^−2; antibacterial activity against Gram-positive organisms (in words) [10]: less effective |
